Laboratory results: PubChem BioAssay (NCI)
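Interpolation was linear, between the two tested concentrations surrounding the appropriate level; five concentrations were tested over 48 hours in 96-well plates. At the TGI there is no net growth.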

Legend:
Test in all cases: inhibition of tumour cell growth, NCI panel, 48 h
786-0 renal = test system: 786-0 renal
A498 renal = test system: A498 renal
A549 NSCLC = test system: A549 NSCLC
ACHN renal = test system: ACHN renal
CAKI-1 renal = test system: CAKI-1 renal
CCRF-CEM leukemia = test system: CCRF-CEM leukemia
COLO 205 colon = test system: COLO 205 colon
DU-145 prostate = test system: DU-145 prostate
HCC-2998 colon = test system: HCC-2998 colon
HCT-116 colon = test system: HCT-116 colon
HCT-15 colon = test system: HCT-15 colon
HOP-62 NSCLC = test system: HOP-62 NSCLC
HOP-92 NSCLC = test system: HOP-92 NSCLC
HS 578T breast = test system: HS 578T breast
HT29 colon = test system: HT29 colon
IGROV1 ovarian = test system: IGROV1 ovarian
K-562 leukemia = test system: K-562 leukemia
KM12 colon = test system: KM12 colon
M14 melanoma = test system: M14 melanoma
MALME-3M melanoma = test system: MALME-3M melanoma
MCF7 breast = test system: MCF7 breast
MDA-MB-231 breast = test system: MDA-MB-231 breast
MDA-MB-435 = test system: MDA-MB-435
MDA-N = test system: MDA-N
MOLT-4 leukemia = test system: MOLT-4 leukemia
NCI-H226 lung = test system: NCI-H226 lung
NCI-H460 lung = test system: NCI-H460 lung
NCI-H522 lung = test system: NCI-H522 lung
NCI/ADR-RES ovarian = test system: NCI/ADR-RES ovarian
OVCAR-3 ovarian = test system: OVCAR-3 ovarian
OVCAR-4 ovarian = test system: OVCAR-4 ovarian
OVCAR-5 ovarian = test system: OVCAR-5 ovarian
OVCAR-8 ovarian = test system: OVCAR-8 ovarian
PC-3 prostate = test system: PC-3 prostate
RPMI-8226 leukemia = test system: RPMI-8226 leukemia
RXF 393 renal = test system: RXF 393 renal
SF-268 CNS = test system: SF-268 CNS
SF-295 CNS = test system: SF-295 CNS
SF-539 CNS = test system: SF-539 CNS
SK-MEL-2 melanoma = test system: SK-MEL-2 melanoma
SK-MEL-28 melanoma = test system: SK-MEL-28 melanoma
SK-MEL-5 melanoma = test system: SK-MEL-5 melanoma
SK-OV-3 ovarian = test system: SK-OV-3 ovarian
SN12C renal = test system: SN12C renal
SNB-75 CNS = test system: SNB-75 CNS
SR leukemia = test system: SR leukemia
SW-620 colon = test system: SW-620 colon
T-47D breast = test system: T-47D breast
TK-10 renal = test system: TK-10 renal
U251 CNS = test system: U251 CNS
UACC-257 melanoma = test system: UACC-257 melanoma
EKVX NSCLC = test system: EKVX NSCLC
HL-60(TB) leukemia = test system: HL-60(TB) leukemia
LOX IMVI melanoma = test system: LOX IMVI melanoma
NCI-H23 lung = test system: NCI-H23 lung
SNB-19 CNS = test system: SNB-19 CNS
UACC-62 melanoma = test system: UACC-62 melanoma

Measured: TGI

N#Cc1nc(CN2C(=O)c3ccccc3C2=O)oc1N
> 100 µM: 786-0 renal | A498 renal | A549 NSCLC | ACHN renal | CAKI-1 renal | CCRF-CEM leukemia | COLO 205 colon | DU-145 prostate | HCC-2998 colon | HCT-116 colon | HCT-15 colon | HOP-62 NSCLC | HOP-92 NSCLC | HS 578T breast | HT29 colon | IGROV1 ovarian | K-562 leukemia | KM12 colon | M14 melanoma | MALME-3M melanoma | MCF7 breast | MDA-MB-231 breast | MDA-MB-435 | MDA-N | MOLT-4 leukemia | NCI-H226 lung | NCI-H460 lung | NCI-H522 lung | NCI/ADR-RES ovarian | OVCAR-3 ovarian | OVCAR-4 ovarian | OVCAR-5 ovarian | OVCAR-8 ovarian | PC-3 prostate | RPMI-8226 leukemia | RXF 393 renal | SF-268 CNS | SF-295 CNS | SF-539 CNS | SK-MEL-2 melanoma | SK-MEL-28 melanoma | SK-MEL-5 melanoma | SK-OV-3 ovarian | SN12C renal | SNB-75 CNS | SR leukemia | SW-620 colon | T-47D breast | TK-10 renal | U251 CNS | UACC-257 melanoma

CCOC(=O)c1c(SC(=O)c2ccc(Cl)cc2)n(-c2ccccc2)c(=S)n(-c2ccccc2)c1=O
> 100 µM: 786-0 renal | A498 renal | A549 NSCLC | ACHN renal | CAKI-1 renal | CCRF-CEM leukemia | COLO 205 colon | DU-145 prostate | EKVX NSCLC | HCC-2998 colon | HCT-116 colon | HCT-15 colon | HL-60(TB) leukemia | HOP-62 NSCLC | HOP-92 NSCLC | HS 578T breast | HT29 colon | IGROV1 ovarian | K-562 leukemia | KM12 colon | LOX IMVI melanoma | M14 melanoma | MALME-3M melanoma | MCF7 breast | MDA-MB-231 breast | MDA-MB-435 | MDA-N | MOLT-4 leukemia | NCI-H226 lung | NCI-H23 lung | NCI-H460 lung | NCI-H522 lung | NCI/ADR-RES ovarian | OVCAR-3 ovarian | OVCAR-4 ovarian | OVCAR-5 ovarian | OVCAR-8 ovarian | PC-3 prostate | RXF 393 renal | SF-268 CNS | SF-295 CNS | SF-539 CNS | SK-MEL-28 melanoma | SK-OV-3 ovarian | SN12C renal | SNB-19 CNS | SNB-75 CNS | SR leukemia | SW-620 colon | T-47D breast | TK-10 renal | U251 CNS | UACC-257 melanoma | UACC-62 melanoma
